Where “and” joins values, the source holds several entries; their conditions need not be identical. Equal values may be shown once. Toxic doses and inconclusive results are not listed. Rule as the data show it: active = T/C of 150% or more; inactive = T/C below 125%.
Tested on: L1210 leukemia ip in BDF1 mice, survival T/C
Assay: NCI In Vivo Anticancer Drug Screen. Data for tumor model L1210 Leukemia (intraperitoneal) in B6D2F1 (BDF1) mice
Conditions: endpoint: mean survival time, higher = longer survival
In short: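 In this screen, tumor-bearing mice given compound are compared to those given vehicle, and their survival values are reported as a treated-to-control quotient.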

[1] = dose: 100.0 mg/kg/injection, schedule: Q01DX009 (ip), vehicle: saline
[2] = dose: 200.0 mg/kg/injection, schedule: Q01DX009 (ip), vehicle: saline
[3] = dose: 400.0 mg/kg/injection, schedule: Q01DX009 (ip), vehicle: saline
[4] = dose: 100.0 mg/kg/injection, schedule: Q01DX001 (ip), vehicle: saline
[5] = dose: 200.0 mg/kg/injection, schedule: Q01DX001 (ip), vehicle: saline
[6] = dose: 400.0 mg/kg/injection, schedule: Q01DX001 (ip), vehicle: saline
[7] = dose: 100.0 mg/kg/injection, schedule: Q04DX003 (ip), vehicle: saline
[8] = dose: 200.0 mg/kg/injection, schedule: Q04DX003 (ip), vehicle: saline
[9] = dose: 400.0 mg/kg/injection, schedule: Q04DX003 (ip), vehicle: saline
[10] = dose: 25.0 mg/kg/injection, schedule: Q04DX003 (ip), vehicle: Klucel (hydroxypropylcellulose) (HPC)
[11] = dose: 50.0 mg/kg/injection, schedule: Q01DX001 (ip), vehicle: carboxymethylcellulose (CMC)
[12] = dose: 100.0 mg/kg/injection, schedule: Q01DX001 (ip), vehicle: carboxymethylcellulose (CMC)
[13] = dose: 200.0 mg/kg/injection, schedule: Q01DX001 (ip), vehicle: carboxymethylcellulose (CMC)
[14] = dose: 400.0 mg/kg/injection, schedule: Q01DX001 (ip), vehicle: carboxymethylcellulose (CMC)

Measured: T/C

O=C(O)C1OC1C(=O)O (stereo unspecified)
inactive: dose: 75.0 mg/kg/injection, schedule: Q01DX009 (ip), vehicle: saline with Tween-80 101 % of control | dose: 75.0 mg/kg/injection, schedule: Q04DX003 (ip), vehicle: saline 100 % of control | dose: 150.0 mg/kg/injection, schedule: Q01DX009 (ip), vehicle: saline with Tween-80 103 % of control | dose: 150.0 mg/kg/injection, schedule: Q04DX003 (ip), vehicle: saline 98 % of control | dose: 300.0 mg/kg/injection, schedule: Q01DX009 (ip), vehicle: saline with Tween-80 95 % of control | dose: 300.0 mg/kg/injection, schedule: Q04DX003 (ip), vehicle: saline 100 % of control

CCOC1(c2ccccc2)C(c2ccccc2)N1C(=O)c1ccc([N+](=O)[O-])cc1 (stereo unspecified)
inactive: dose: 100.0 mg/kg/injection, schedule: Q04DX003 (ip), vehicle: Klucel (hydroxypropylcellulose) (HPC) 92 % of control | dose: 200.0 mg/kg/injection, schedule: Q04DX003 (ip), vehicle: Klucel (hydroxypropylcellulose) (HPC) 91 % of control | dose: 400.0 mg/kg/injection, schedule: Q04DX003 (ip), vehicle: Klucel (hydroxypropylcellulose) (HPC) 92 % of control

CCCCOCCCO
inactive: [1] 91 % of control | [2] 92 % of control | [3] 95 % of control

CCC(CC)=NNc1ccc([N+](=O)[O-])cc1[N+](=O)[O-]
inactive: [4] 95 % of control | [5] 97 % of control | [6] 97 % of control

C/C(=N/N(C)C)c1cccs1
inactive: dose: 4.0 mg/kg/injection, schedule: Q04DX003 (sc), vehicle: olive oil, sesame oil, peanut oil 89 % of control | dose: 6.0 mg/kg/injection, schedule: Q04DX003 (sc), vehicle: olive oil, sesame oil, peanut oil 103 % of control | dose: 9.0 mg/kg/injection, schedule: Q04DX003 (sc), vehicle: olive oil, sesame oil, peanut oil 99 % of control | dose: 12.5 mg/kg/injection, schedule: Q04DX003 (sc), vehicle: olive oil, sesame oil, peanut oil 102 % of control | dose: 14.0 mg/kg/injection, schedule: Q04DX003 (sc), vehicle: olive oil, sesame oil, peanut oil 97 % of control | dose: 22.0 mg/kg/injection, schedule: Q04DX003 (sc), vehicle: olive oil, sesame oil, peanut oil 120 % of control | dose: 33.0 mg/kg/injection, schedule: Q04DX003 (sc), vehicle: olive oil, sesame oil, peanut oil 124 % of control | dose: 50.0 mg/kg/injection, schedule: Q04DX003 (sc), vehicle: olive oil, sesame oil, peanut oil 98 % of control

COC(=O)C(N)Cc1ccc(O)c(O)c1 (stereo unspecified)
inactive: [1] 110 % of control | [7] 102 % of control | [2] 112 % of control | [8] 98 % of control | [3] 112 % of control | [9] 102 % of control

CS(=O)(=O)c1ccc(N)cc1
inactive: dose: 6.25 mg/kg/injection, schedule: Q04DX003 (ip), vehicle: Klucel (hydroxypropylcellulose) (HPC) 99 % of control | dose: 12.5 mg/kg/injection, schedule: Q04DX003 (ip), vehicle: Klucel (hydroxypropylcellulose) (HPC) 95 % of control | [10] 95 % of control | dose: 50.0 mg/kg/injection, schedule: Q01DX009 (ip), vehicle: saline with Tween-80 100 % of control | dose: 50.0 mg/kg/injection, schedule: Q01DX009 (ip), vehicle: saline 93 % of control | dose: 100.0 mg/kg/injection, schedule: Q01DX009 (ip), vehicle: saline with Tween-80 92 % of control | [1] 87 % of control | dose: 200.0 mg/kg/injection, schedule: Q01DX009 (ip), vehicle: saline with Tween-80 92 % of control | [2] 93 % of control

c1ccc(-c2nc3ccccc3[nH]2)cc1
inactive: dose: 55.0 mg/kg/injection, schedule: Q01DX Z (ip), vehicle: methylcellulose (MC) 107 % of control | dose: 83.0 mg/kg/injection, schedule: Q01DX Z (ip), vehicle: methylcellulose (MC) 103 % of control | dose: 100.0 mg/kg/injection, schedule: Q04DX002 (ip), vehicle: Klucel (hydroxypropylcellulose) (HPC) 109 % of control and 95 % of control | dose: 125.0 mg/kg/injection, schedule: Q01DX Z (ip), vehicle: methylcellulose (MC) 100 % of control | dose: 200.0 mg/kg/injection, schedule: Q04DX002 (ip), vehicle: Klucel (hydroxypropylcellulose) (HPC) 103 % of control and 106 % of control | dose: 400.0 mg/kg/injection, schedule: Q04DX002 (ip), vehicle: Klucel (hydroxypropylcellulose) (HPC) 109 % of control and 98 % of control

CCCCCCCCCCCCC/C=N\N=C(N)N
inactive: dose: 15.0 mg/kg/injection, schedule: Q01DX Z (ip), vehicle: saline 96 % of control | dose: 30.0 mg/kg/injection, schedule: Q01DX Z (ip), vehicle: saline 89 % of control | dose: 60.0 mg/kg/injection, schedule: Q01DX Z (ip), vehicle: saline 89 % of control | dose: 60.0 mg/kg/injection, schedule: Q01DX Z (oral), vehicle: saline 98 % of control | dose: 120.0 mg/kg/injection, schedule: Q01DX Z (ip), vehicle: saline 96 % of control | dose: 120.0 mg/kg/injection, schedule: Q01DX Z (oral), vehicle: saline 101 % of control | dose: 240.0 mg/kg/injection, schedule: Q01DX Z (oral), vehicle: saline 101 % of control | dose: 480.0 mg/kg/injection, schedule: Q01DX Z (oral), vehicle: saline 98 % of control

Cn1c(=S)[nH]c2cc(Cl)c(Cl)cc21
inactive: [7] 100 % of control | [8] 105 % of control | [9] 97 % of control

C=C1CCOC1=O
inactive: dose: 100.0 mg/kg/injection, schedule: Q04DX002 (ip), vehicle: saline 104 % of control | dose: 200.0 mg/kg/injection, schedule: Q04DX002 (ip), vehicle: saline 108 % of control | dose: 400.0 mg/kg/injection, schedule: Q04DX002 (ip), vehicle: saline 106 % of control

C=CCNC(=O)C[n+]1cccc(C(=O)NC)c1
inactive: [4] 106 % of control | [5] 103 % of control | [6] 97 % of control

O=C(O)c1ccc(F)cc1O
inactive: [4] 97 % of control | [5] 109 % of control

C/C=C/C(=O)NCC(=O)O
inactive: [4] 90 % of control | [5] 97 % of control | [6] 103 % of control

CSc1ncc(CO)c(N)n1
inactive: [11] 111 % of control | [12] 98 % of control | [13] 102 % of control | [14] 111 % of control

Cc1c2c(cc3c1OCN(Cc1ccccc1)C3)CN(Cc1ccccc1)CO2
inactive: [11] 105 % of control | [12] 94 % of control | [13] 89 % of control | [14] 91 % of control

CC(=O)N(N=O)c1ccc(N(N=O)C(C)=O)cc1
inactive: dose: 5.0 mg/kg/injection, schedule: Q01DX001 (ip), vehicle: saline 106 % of control | dose: 10.0 mg/kg/injection, schedule: Q01DX001 (ip), vehicle: saline 97 % of control | dose: 20.0 mg/kg/injection, schedule: Q01DX001 (ip), vehicle: saline 112 % of control

CC[CH2][Sn]([CH2]CC)[CH2]CC.CC[CH2][Sn]([CH2]CC)[CH2]CC
inactive: dose: 12.5 mg/kg/injection, schedule: Q01DX009 (sc), vehicle: olive oil, sesame oil, peanut oil 97 % of control | dose: 25.0 mg/kg/injection, schedule: Q01DX009 (sc), vehicle: olive oil, sesame oil, peanut oil 100 % of control | dose: 25.0 mg/kg/injection, schedule: Q04DX002 (sc), vehicle: olive oil, sesame oil, peanut oil 102 % of control | dose: 50.0 mg/kg/injection, schedule: Q04DX002 (sc), vehicle: olive oil, sesame oil, peanut oil 102 % of control | dose: 100.0 mg/kg/injection, schedule: Q04DX002 (sc), vehicle: olive oil, sesame oil, peanut oil 115 % of control

BrC1CCCCCCC1Br (stereo unspecified)
inactive: dose: 25.0 mg/kg/injection, schedule: Q04DX003 (ip), vehicle: saline 102 % of control | dose: 50.0 mg/kg/injection, schedule: Q04DX003 (ip), vehicle: saline 96 % of control | [7] 91 % of control

C[N+](C)(C)CC1(COC(=O)C(O)(c2ccccc2)c2ccccc2)CC1
inactive: dose: 12.0 mg/kg/injection, schedule: Q04DX003 (ip), vehicle: Klucel (hydroxypropylcellulose) (HPC) 97 % of control | dose: 25.0 mg/kg/injection, schedule: Q01DX001 (ip), vehicle: Klucel (hydroxypropylcellulose) (HPC) 93 % of control | [10] 105 % of control | dose: 50.0 mg/kg/injection, schedule: Q01DX001 (ip), vehicle: Klucel (hydroxypropylcellulose) (HPC) 100 % of control | dose: 50.0 mg/kg/injection, schedule: Q04DX003 (ip), vehicle: Klucel (hydroxypropylcellulose) (HPC) 95 % of control | dose: 100.0 mg/kg/injection, schedule: Q01DX001 (ip), vehicle: Klucel (hydroxypropylcellulose) (HPC) 96 % of control and 100 % of control
